# Assay results reported in ChEMBL document CHEMBL5291721, “A preclinical secondary pharmacology resource illuminates target-adverse drug reaction associations of marketed drugs” (Nat Commun, 2023).
# Tests used:
# [1] = target: T1, Alpha-1A adrenergic receptor (Homo sapiens, UniProt P35348)
# T1 sequence (P35348 whole entry): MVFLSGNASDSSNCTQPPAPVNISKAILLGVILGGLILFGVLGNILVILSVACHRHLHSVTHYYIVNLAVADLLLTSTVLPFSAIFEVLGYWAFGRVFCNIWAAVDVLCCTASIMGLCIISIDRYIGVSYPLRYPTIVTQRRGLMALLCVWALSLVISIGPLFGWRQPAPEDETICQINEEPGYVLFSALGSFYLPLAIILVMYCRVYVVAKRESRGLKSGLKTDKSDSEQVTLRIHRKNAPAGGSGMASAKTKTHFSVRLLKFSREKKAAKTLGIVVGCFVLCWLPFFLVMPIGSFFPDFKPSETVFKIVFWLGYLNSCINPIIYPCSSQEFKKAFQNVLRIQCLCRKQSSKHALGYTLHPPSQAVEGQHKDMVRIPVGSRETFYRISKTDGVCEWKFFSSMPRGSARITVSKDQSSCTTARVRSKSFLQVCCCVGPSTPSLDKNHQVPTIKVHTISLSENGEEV
# [2] = target: Beta-1 adrenergic receptor (Homo sapiens, UniProt P08588); type: functional
# [3] = target: Beta-2 adrenergic receptor (Homo sapiens, UniProt P07550)
# [4] = target: Voltage-dependent L-type calcium channel subunit alpha-1C (Rattus norvegicus, UniProt P22002); type: functional
# Sequence of Voltage-dependent L-type calcium channel subunit alpha-1C (Rattus norvegicus, UniProt P22002) (P22002 whole entry): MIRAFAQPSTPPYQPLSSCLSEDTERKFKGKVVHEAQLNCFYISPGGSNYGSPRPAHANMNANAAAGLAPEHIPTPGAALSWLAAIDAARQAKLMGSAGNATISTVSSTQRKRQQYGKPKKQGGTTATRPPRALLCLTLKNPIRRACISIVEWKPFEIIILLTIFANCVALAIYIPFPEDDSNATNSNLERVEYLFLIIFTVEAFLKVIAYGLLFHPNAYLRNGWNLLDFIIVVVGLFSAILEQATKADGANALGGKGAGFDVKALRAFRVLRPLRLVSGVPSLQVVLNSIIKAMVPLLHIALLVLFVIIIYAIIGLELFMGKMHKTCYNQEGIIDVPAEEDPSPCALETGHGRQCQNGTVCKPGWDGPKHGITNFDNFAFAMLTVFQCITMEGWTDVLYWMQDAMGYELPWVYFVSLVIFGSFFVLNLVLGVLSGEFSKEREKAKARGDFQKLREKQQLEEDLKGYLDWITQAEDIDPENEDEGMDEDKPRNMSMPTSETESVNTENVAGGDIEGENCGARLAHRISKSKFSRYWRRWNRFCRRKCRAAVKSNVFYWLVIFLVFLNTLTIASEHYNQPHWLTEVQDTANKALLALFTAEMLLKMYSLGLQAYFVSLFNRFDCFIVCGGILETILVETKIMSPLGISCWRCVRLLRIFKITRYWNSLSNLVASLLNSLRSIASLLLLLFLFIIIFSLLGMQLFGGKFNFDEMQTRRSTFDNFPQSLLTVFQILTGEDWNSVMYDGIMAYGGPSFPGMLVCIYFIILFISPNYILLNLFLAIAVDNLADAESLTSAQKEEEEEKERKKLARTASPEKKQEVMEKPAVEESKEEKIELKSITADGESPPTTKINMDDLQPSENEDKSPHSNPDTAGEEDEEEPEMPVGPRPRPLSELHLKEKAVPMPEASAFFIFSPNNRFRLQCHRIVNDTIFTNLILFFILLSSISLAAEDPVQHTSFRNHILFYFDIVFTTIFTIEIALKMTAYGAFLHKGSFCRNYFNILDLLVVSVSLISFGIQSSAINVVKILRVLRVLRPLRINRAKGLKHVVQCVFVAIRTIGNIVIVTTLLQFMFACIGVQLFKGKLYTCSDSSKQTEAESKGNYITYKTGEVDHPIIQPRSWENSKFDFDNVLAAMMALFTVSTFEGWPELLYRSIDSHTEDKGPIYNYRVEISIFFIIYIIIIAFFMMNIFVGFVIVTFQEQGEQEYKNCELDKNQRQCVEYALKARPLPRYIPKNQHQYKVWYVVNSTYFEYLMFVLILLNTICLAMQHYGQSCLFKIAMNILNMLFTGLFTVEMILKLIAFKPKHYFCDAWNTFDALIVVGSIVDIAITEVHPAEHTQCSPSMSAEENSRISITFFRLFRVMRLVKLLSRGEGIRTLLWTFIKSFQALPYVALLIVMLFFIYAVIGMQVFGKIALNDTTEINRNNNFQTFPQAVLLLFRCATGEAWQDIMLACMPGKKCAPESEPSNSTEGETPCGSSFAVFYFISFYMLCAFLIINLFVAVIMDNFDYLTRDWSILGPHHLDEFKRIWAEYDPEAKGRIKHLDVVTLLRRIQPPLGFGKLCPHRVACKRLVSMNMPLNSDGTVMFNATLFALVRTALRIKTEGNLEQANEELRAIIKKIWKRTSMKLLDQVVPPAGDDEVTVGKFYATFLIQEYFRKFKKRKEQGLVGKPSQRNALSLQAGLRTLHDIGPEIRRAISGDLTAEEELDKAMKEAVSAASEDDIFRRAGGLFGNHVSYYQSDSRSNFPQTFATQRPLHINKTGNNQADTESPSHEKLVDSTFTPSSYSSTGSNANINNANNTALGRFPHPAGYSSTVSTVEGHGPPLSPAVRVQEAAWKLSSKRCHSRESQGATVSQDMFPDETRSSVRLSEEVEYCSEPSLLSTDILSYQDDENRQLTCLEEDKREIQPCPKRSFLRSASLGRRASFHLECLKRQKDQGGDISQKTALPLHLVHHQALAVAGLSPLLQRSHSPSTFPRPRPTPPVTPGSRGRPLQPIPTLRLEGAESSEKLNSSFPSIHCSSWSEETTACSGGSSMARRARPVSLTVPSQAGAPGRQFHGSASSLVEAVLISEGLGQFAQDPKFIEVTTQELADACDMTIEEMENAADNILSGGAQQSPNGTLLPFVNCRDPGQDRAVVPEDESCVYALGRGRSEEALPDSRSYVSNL
# [5] = target: Glutamate receptor ionotropic, NMDA 1 (Rattus norvegicus, UniProt P35439)
# [6] = target: Neuronal acetylcholine receptor subunit alpha-4 (Homo sapiens, UniProt P43681)
# Sequence of Neuronal acetylcholine receptor subunit alpha-4 (P43681 whole entry): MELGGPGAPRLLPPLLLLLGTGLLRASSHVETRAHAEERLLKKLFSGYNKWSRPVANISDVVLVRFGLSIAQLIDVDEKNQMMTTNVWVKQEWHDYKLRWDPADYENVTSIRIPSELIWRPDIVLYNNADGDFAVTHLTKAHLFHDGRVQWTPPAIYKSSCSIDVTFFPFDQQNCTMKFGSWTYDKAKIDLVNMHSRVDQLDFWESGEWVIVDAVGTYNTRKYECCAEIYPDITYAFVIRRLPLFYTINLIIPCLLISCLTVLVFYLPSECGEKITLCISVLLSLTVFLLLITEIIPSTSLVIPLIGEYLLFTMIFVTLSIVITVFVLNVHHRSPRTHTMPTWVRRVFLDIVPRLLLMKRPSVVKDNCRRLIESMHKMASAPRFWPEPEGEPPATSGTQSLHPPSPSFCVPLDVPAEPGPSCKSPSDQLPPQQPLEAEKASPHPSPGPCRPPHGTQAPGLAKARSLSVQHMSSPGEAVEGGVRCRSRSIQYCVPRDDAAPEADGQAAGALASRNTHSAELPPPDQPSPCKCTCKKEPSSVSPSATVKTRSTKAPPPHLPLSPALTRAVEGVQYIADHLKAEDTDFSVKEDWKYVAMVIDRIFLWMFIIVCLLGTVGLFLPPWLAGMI
# [7] = target: T2, Gamma-aminobutyric acid receptor subunit alpha-1 (Rattus norvegicus, UniProt P62813)
# T2 sequence (P62813 whole entry): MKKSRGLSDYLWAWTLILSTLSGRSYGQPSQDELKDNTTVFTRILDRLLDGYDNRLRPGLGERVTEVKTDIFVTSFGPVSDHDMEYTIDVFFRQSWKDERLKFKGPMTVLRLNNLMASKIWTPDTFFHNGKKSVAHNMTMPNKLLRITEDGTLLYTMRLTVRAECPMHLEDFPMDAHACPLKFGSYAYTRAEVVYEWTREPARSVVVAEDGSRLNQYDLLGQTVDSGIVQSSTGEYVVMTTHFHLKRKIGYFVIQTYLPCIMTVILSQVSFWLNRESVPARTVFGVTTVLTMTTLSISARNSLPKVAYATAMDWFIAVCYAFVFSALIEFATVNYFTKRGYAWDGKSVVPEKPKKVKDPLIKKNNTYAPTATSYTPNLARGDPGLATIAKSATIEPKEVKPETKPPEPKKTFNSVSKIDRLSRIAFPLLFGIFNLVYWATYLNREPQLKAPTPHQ
# [8] = target: T2, Gamma-aminobutyric acid receptor subunit alpha-1; type: functional
# [9] = target: Voltage-gated inwardly rectifying potassium channel KCNH2 (Homo sapiens, UniProt Q12809); type: functional
# [10] = target: Delta-type opioid receptor (Homo sapiens, UniProt P41143)
# [11] = target: Kappa-type opioid receptor (Homo sapiens, UniProt P41145)
# [12] = target: T3, Mu-type opioid receptor (Homo sapiens, UniProt P35372); experiment: biochemical; type: functional
# T3 sequence (P35372 whole entry): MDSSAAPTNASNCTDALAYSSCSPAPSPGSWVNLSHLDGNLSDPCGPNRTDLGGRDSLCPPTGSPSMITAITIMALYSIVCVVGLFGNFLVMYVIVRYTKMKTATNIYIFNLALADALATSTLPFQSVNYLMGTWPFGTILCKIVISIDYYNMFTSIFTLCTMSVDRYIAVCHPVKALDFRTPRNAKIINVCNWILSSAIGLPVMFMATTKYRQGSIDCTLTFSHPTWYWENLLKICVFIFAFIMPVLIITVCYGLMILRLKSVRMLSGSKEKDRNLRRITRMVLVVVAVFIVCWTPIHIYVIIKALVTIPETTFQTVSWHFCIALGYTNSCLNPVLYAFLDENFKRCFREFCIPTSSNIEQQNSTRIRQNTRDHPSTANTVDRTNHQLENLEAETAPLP
# [13] = target: Sodium-dependent noradrenaline transporter (Homo sapiens, UniProt P23975)
# [14] = target: T3, Mu-type opioid receptor
# [15] = target: Acetylcholinesterase (Homo sapiens, UniProt P22303); type: functional
# Sequence of Acetylcholinesterase (P22303 whole entry): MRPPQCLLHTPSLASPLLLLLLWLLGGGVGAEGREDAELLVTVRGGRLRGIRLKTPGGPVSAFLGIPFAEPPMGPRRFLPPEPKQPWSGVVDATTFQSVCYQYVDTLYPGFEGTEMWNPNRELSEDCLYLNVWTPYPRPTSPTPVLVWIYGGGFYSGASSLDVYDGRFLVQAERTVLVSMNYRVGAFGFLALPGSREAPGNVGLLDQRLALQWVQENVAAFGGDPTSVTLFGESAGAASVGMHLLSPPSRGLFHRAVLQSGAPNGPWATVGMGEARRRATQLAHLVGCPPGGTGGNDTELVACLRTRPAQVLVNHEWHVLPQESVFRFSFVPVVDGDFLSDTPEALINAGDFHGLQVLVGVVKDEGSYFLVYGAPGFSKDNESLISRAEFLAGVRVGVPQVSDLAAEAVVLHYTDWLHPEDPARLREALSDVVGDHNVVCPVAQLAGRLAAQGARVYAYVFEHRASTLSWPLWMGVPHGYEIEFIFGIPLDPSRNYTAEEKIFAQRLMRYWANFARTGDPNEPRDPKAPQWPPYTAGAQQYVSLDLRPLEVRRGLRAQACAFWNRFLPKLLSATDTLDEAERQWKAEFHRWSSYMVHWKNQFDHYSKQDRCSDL
# [16] = target: T1, Alpha-1A adrenergic receptor; type: functional, cell-based
# [17] = target: T1, Alpha-1A adrenergic receptor; type: functional, cell-based; remark: listed apart in the source
# [18] = target: T4, Alpha-2A adrenergic receptor (Homo sapiens, UniProt P08913)
# T4 sequence (P08913 whole entry): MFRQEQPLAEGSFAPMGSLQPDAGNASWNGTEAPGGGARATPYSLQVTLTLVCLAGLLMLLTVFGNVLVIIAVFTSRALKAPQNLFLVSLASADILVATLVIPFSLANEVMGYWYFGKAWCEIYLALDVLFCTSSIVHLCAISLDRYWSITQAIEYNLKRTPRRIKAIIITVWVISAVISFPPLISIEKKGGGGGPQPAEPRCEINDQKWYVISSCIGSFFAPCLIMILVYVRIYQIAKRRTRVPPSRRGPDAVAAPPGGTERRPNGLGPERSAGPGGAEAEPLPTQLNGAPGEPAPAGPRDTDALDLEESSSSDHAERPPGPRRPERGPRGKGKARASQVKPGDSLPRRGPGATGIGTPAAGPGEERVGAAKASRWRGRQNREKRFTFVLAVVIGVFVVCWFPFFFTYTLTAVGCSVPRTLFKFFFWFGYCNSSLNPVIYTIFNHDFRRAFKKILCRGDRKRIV
# [19] = target: T5, Androgen receptor (Homo sapiens, UniProt P10275)
# T5 sequence (P10275 whole entry): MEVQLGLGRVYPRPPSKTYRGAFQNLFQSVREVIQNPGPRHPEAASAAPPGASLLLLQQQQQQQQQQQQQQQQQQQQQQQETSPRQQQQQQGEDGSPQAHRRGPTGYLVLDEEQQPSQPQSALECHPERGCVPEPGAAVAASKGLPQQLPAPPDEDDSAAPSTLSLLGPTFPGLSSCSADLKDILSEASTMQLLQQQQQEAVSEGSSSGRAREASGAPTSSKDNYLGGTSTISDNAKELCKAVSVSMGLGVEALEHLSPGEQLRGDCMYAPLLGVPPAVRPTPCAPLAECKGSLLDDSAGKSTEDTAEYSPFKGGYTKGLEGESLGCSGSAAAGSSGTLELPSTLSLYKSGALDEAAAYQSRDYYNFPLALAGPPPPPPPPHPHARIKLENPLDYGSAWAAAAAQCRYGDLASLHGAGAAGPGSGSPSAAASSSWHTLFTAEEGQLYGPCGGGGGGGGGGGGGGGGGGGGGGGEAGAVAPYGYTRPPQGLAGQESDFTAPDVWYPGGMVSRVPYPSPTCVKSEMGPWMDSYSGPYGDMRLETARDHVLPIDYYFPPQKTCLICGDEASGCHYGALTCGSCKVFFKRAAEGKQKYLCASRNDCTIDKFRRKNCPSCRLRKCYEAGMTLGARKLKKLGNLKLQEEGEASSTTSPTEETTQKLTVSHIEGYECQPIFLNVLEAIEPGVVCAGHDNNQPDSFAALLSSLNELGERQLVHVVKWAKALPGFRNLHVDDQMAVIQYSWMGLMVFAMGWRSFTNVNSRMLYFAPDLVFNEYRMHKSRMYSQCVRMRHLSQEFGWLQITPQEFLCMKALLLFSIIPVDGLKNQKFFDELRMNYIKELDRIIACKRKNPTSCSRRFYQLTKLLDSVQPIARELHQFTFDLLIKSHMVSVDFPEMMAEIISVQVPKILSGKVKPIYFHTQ
# [20] = target: Voltage-dependent L-type calcium channel subunit alpha-1C (Homo sapiens, UniProt Q13936); type: functional, cell-based
# [21] = target: Histamine H3 receptor (Homo sapiens, UniProt Q9Y5N1)
# Sequence of Histamine H3 receptor (Q9Y5N1 whole entry): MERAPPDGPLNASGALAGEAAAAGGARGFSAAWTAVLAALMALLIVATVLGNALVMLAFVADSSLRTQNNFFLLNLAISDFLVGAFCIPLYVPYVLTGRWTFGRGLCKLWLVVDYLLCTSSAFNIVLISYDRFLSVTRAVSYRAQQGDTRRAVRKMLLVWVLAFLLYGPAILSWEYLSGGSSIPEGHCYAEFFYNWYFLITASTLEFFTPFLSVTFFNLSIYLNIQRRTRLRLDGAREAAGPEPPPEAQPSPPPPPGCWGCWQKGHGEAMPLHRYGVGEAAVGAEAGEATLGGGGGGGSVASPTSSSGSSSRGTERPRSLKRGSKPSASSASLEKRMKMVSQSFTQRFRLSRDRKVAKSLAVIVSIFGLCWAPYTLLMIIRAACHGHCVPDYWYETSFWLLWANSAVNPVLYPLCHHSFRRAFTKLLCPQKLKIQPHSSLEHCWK
# [22] = target: T6, Amine oxidase [flavin-containing] A (Homo sapiens, UniProt P21397); type: functional
# T6 sequence (P21397 whole entry): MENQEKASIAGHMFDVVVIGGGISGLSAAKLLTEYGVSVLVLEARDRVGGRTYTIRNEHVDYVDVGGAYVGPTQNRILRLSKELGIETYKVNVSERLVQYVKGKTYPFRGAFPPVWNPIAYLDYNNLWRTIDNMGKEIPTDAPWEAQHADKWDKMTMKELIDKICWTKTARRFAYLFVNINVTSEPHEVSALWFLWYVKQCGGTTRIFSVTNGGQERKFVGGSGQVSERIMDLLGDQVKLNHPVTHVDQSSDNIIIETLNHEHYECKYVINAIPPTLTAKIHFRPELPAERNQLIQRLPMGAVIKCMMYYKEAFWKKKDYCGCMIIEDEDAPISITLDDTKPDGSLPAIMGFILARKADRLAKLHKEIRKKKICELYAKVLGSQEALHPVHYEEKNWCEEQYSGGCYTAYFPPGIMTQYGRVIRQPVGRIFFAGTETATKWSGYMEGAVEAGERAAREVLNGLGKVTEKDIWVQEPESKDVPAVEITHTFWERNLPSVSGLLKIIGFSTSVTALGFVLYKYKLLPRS
# [23] = target: T7, Thromboxane A2 receptor (Homo sapiens, UniProt P21731); type: functional, cell-based
# T7 sequence (P21731 whole entry): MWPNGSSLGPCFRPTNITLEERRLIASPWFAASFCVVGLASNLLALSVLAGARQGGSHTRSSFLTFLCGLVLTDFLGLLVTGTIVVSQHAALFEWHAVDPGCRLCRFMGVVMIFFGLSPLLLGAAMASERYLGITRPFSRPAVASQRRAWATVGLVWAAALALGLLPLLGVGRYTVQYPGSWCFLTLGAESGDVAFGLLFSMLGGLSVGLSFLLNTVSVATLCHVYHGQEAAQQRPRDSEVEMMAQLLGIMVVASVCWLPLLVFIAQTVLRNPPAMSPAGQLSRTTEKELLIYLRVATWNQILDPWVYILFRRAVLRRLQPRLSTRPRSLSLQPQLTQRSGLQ
# [24] = target: Epidermal growth factor receptor (Homo sapiens, UniProt P00533); type: functional
# [25] = target: Growth hormone secretagogue receptor type 1 (Homo sapiens, UniProt Q92847)
# Sequence of Growth hormone secretagogue receptor type 1 (Q92847 whole entry): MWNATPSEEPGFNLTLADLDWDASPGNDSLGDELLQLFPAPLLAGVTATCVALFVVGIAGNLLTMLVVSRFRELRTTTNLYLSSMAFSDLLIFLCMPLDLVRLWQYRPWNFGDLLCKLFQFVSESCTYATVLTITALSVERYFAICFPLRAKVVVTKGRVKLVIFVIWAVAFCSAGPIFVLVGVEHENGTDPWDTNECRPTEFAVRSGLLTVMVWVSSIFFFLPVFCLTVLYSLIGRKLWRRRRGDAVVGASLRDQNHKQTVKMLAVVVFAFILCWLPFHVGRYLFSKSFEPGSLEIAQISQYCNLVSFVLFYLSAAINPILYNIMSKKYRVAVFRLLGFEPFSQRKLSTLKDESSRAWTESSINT
# Further: assay procedure not described here.
structure (smiles),measurement,setting,value
CCc1cc(C(N)=S)ccn1 [ETHIONAMIDE],AC50,[1],> 10 µM
same,AC50,[2],> 10 µM
same,AC50,[3],> 10 µM
same,AC50,[4],> 10 µM
same,AC50,[5],> 10 µM
CSCC[C@H](NC(=O)[C@H](Cc1c[nH]c2ccccc12)NC(=O)CCNC(=O)OC(C)(C)C)C(=O)N[C@@H](CC(=O)O)C(=O)N[C@@H](Cc1ccccc1)C(N)=O [PENTAGASTRIN],AC50,[4],> 10 µM
same,AC50,[6],> 10 µM
same,AC50,[7],> 10 µM
same,AC50,[8],> 10 µM
same,AC50,[5],> 10 µM
same,AC50,[9],> 30 µM
same,AC50,[10],> 30 µM
same,AC50,[11],> 10 µM
same,AC50,[12],> 30 µM
same,AC50,[13],> 10 µM
same,AC50,[14],> 30 µM
c1ccc(C2(c3ccccc3)CC2C2=NCCN2)cc1 (centres undefined) [CIFENLINE],AC50,[15],> 30 µM
same,AC50,[16],> 30 µM
same,AC50,[17],> 30 µM
same,AC50,[18],> 30 µM
same,AC50,[19],22.6 µM
same,AC50,[20],> 50 µM
same,AC50,[21],> 30 µM
same,AC50,[22],> 30 µM
CCCCC[C@H](O)/C=C/[C@@H]1[C@@H](C/C=C\CCCC(=O)O)[C@@H](O)C[C@H]1O [DINOPROST],AC50,[23],2.76 µM
N=C(N)c1ccc(OCCCCCOc2ccc(C(=N)N)cc2)cc1 [PENTAMIDINE],AC50,[15],7.28 µM
O=C(O)Cc1cc(I)c(Oc2ccc(O)c(I)c2)c(I)c1 [TIRATRICOL],AC50,[24],> 30 µM
same,AC50,[25],> 30 µM
CC(C)Oc1ccc2c(=O)c(-c3ccccc3)coc2c1 [IPRIFLAVONE],AC50,[15],> 30 µM
